# Experimental data: the NIST ThermoML archive (doi:10.1016/j.jct.2006.09.010)
# Numbers after ± are expanded uncertainties.
# Details: Liquid
smiles,measurement,setting,value
FC(F)C(F)(F)F [pentafluoroethane],vapor or sublimation pressure,313.15 K,2008 ± 38 kPa
same,vapor or sublimation pressure,323.15 K,2535 ± 48 kPa
same,vapor or sublimation pressure,333.15 K,3171 ± 59 kPa
